In patent US20150105252A1, “SUBSTITUTED PYRAZOLES AS HERBICIDES” (E I DU PONT DE NEMOURS AND COMPANY, priority 2013, published 2015):

Legend:
crabgrass, large [1] = experiment: Test A preemergence; type: in vivo, Digitaria sanguinalis; conditions: 0 to 100 scale
Summary of the method: (§1)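 Visual injury ratings, 0 = no effect to 100 = complete control, taken about 10 days after treatment against untreated controls. Test chemicals, in a non-phytotoxic surfactant-containing solvent, were sprayed onto soil preemergence or onto one- to two-leaf plants (2–10 cm) postemergence, in loam–sand soil under greenhouse conditions.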

morningglory = experiment: Test A preemergence; type: in vivo, Ipomoea spp.; conditions: 0 to 100 scale
Summary of the method: as §1

barnyardgrass = experiment: Test A postemergence; type: in vivo, Echinochloa crus-galli; conditions: Postemergence
Summary of the method: as §1

pigweed = experiment: Test A postemergence; type: in vivo, Amaranthus retroflexus
Summary of the method: as §1

ryegrass, Italian = experiment: Test C preemergence; type: in vivo, Lolium multiflorum; conditions: for Plant response rating (scale of 0 to 100), Ryegrass, Italian: Preemergence, 250 g ai/ha; for Ryegrass, Italian plant response rating / Plant response rating, Ryegrass, Italian: preemergence; for Plant response rating, Ryegrass, Italian: 62 g ai/ha, scale 0 to 100, 0 = no effect, 100 = complete control
Summary of the method: (§2)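 In this greenhouse assay, seeded soil (loam plus sand) or emerged seedlings in peat-vermiculite medium were treated with formulated compound. Roughly two weeks later (13–15 days), each species was scored visually relative to controls, from 0 for no effect to 100 for complete control.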

crabgrass, large [2] = experiment: Test C preemergence; type: in vivo, Digitaria sanguinalis; conditions: for Plant response rating (scale of 0 to 100), Crabgrass, Large: Preemergence, 250 g ai/ha; for Crabgrass, Large plant response rating / Plant response rating, Crabgrass, Large: preemergence; for Plant response rating, Crabgrass, Large: 62 g ai/ha, scale 0 to 100, 0 = no effect, 100 = complete control
Summary of the method: as §2

foxtail, giant = experiment: Test C preemergence; type: in vivo, Setaria faberii; conditions: for Plant response rating (scale of 0 to 100), Foxtail, Giant: Preemergence, 250 g ai/ha; for Foxtail, Giant plant response rating / Plant response rating, Foxtail, Giant: preemergence; for Plant response rating, Foxtail, Giant: 62 g ai/ha, scale 0 to 100, 0 = no effect, 100 = complete control
Summary of the method: as §2

johnsongrass = experiment: Test C preemergence; type: in vivo, Sorghum halepense; conditions: for Plant response rating (scale of 0 to 100), Johnsongrass: Preemergence, 250 g ai/ha; for Johnsongrass plant response rating / Plant response rating, Johnsongrass: preemergence; for Plant response rating, Johnsongrass: 62 g ai/ha, scale 0 to 100, 0 = no effect, 100 = complete control
Summary of the method: as §2

velvetleaf = experiment: Test C preemergence; type: in vivo, Abutilon theophrasti; conditions: for Plant response rating (scale of 0 to 100), Velvetleaf: Preemergence, 250 g ai/ha; for Velvetleaf plant response rating / Plant response rating, Velvetleaf: preemergence; for Plant response rating, Velvetleaf: 62 g ai/ha, scale 0 to 100, 0 = no effect, 100 = complete control
Summary of the method: as §2

crabgrass, large [3] = experiment: Test C postemergence; type: in vivo, Digitaria sanguinalis; conditions: for Crabgrass, Large plant response rating: scale 0 to 100
Excerpt: Seeds of plant species selected from blackgrass (Alopecurus myosuroides), ryegrass, Italian (Italian ryegrass, Lolium multiflorum), wheat (winter wheat, Triticum aestivum), galium (catchweed bedstraw, Galium aparine), corn (Zea mays), crabgrass, large (large crabgrass, Digitaria sanguinalis), foxtail, giant (giant foxtail, Setaria faberii), johnsongrass (Sorghum halepense), lambsquarters (Chenopodium album), morningglory (Ipomoea coccinea), nutsedge, yellow (yellow nutsedge, Cyperus esculentus), pigweed (redroot pigweed, Amaranthus retroflexus), ragweed (common ragweed, Ambrosia elation), soybean (Glycine max), barnyardgrass (Echinochloa crus-galli), oilseed rape (Brassica napus), waterhemp (common waterhemp, Amaranthus rudis), oat, wild (wild oat, Avena fatua), kochia (Kochia scoparia), Surinam grass (Brachiaria decumbens), foxtail, green (green foxtail, Setaria viridis), goosegrass (Eleusine indica), bromegrass, downy (downy bromegrass, Bromus tectorum), nightshade (eastern black nightshade, Solanum ptycanthum), cocklebur (common cocklebur, Xanthium strumarium), cupgrass, woolly (woolly cupgrass, Eriochloa villosa), bermudagrass (Cynodon dactylon), sunflower, (common oilseed sunflower, Helianthus annuus), Russian thistle (Salsola kali), and velvetleaf (Abutilon theophrasti) were planted into a blend of loam soil and sand and treated preemergence with test chemicals formulated in a non-phytotoxic solvent mixture which included a surfactant.
At the same time, plants selected from these crop and weed species and also chickweed (common chickweed, Stellaria media), canarygrass (littleseed canarygrass, Phalaris minor), and deadnettle (henbit deadnettle, Lamium amplexicaule), were planted in pots containing Redi-Earth® planting medium (Scotts Company, 14111 Scottslawn Road, Marysville, Ohio 43041) comprising spaghnum peat moss, vermiculite, wetting agent and starter nutrients and treated with postemergence applications of test chemicals formulated in the same manner. Plants ranged in height from 2 to 18 cm (1- to 4-leaf stage) for postemergence treatments. Treated plants and controls were maintained in a greenhouse for 13 to 15 days, after which time all species were compared to controls and visually evaluated. Plant response ratings, summarized in Table C, are based on a scale of 0 to 100 where 0 is no effect and 100 is complete control. A dash (-) response means no test result.

kochia = experiment: Test C postemergence; type: in vivo, Kochia scoparia; conditions: for Kochia plant response rating: scale 0 to 100
Summary of the method: as §2

chickweed = experiment: Test C postemergence; type: in vivo, Stellaria media; conditions: for Chickweed plant response rating: scale 0 to 100
Summary of the method: as §2

[4] = Preemergence, 1000 g ai/ha, 0 no effect, 100 complete control
[5] = 31 g ai/ha, scale 0 to 100 (0 no effect, 100 complete control), 13 to 15 days
[6] = 125 g ai/ha, scale 0 to 100, 0 is no effect, 100 is complete control
[7] = postemergence, 250 g ai/ha, scale 0 to 100 (0 no effect, 100 complete control)
[8] = postemergence, 125 g ai/ha, scale 0 to 100, 0 no effect, 100 complete control
[9] = Preemergence, 500 g ai/ha, 0 no effect, 100 complete control
[10] = preemergence, 125 g ai/ha, visual injury, approx. 10 days
[11] = 125 g ai/ha, 0 to 100 scale, 0 no effect, 100 complete control
[12] = 500 g ai/ha, visual rating after approx. 10 days, 0 to 100 scale (0 no effect, 100 complete control)
[13] = Postemergence, 500 g ai/ha, visual rating after approx. 10 days, 0 to 100 scale (0 no effect, 100 complete control)
[14] = postemergence, 125 g ai/ha, about 10 days, visual rating on 0 to 100 scale (0 no effect, 100 complete control)
[15] = postemergence, 62 g ai/ha, scale 0 to 100, 0 no effect, 100 complete control

Row | Structure (SMILES) | Plant response rating (scale of 0 to 100), Ryegrass, Italian (ryegrass, Italian) | Ryegrass, Italian plant response rating (ryegrass, Italian; [5]) | Plant response rating, Ryegrass, Italian (ryegrass, Italian; 13 to 15 days) | Ryegrass, Italian plant response rating (ryegrass, Italian; [6]) | Plant response rating (scale of 0 to 100), Crabgrass, Large (crabgrass, large [2]) | Crabgrass, Large plant response rating (crabgrass, large [2]; [5]) | Plant response rating, Crabgrass, Large (crabgrass, large [2]; 13 to 15 days) | Crabgrass, Large plant response rating (crabgrass, large [2]; [6]) | Plant response rating (scale of 0 to 100), Foxtail, Giant (foxtail, giant) | Foxtail, Giant plant response rating (foxtail, giant; [5]) | Plant response rating, Foxtail, Giant (foxtail, giant; 13 to 15 days) | Foxtail, Giant plant response rating (foxtail, giant; [6]) | Plant response rating (scale of 0 to 100), Johnsongrass (johnsongrass) | Johnsongrass plant response rating (johnsongrass; [5]) | Plant response rating, Johnsongrass (johnsongrass; 13 to 15 days) | Johnsongrass plant response rating (johnsongrass; [6]) | Plant response rating (scale of 0 to 100), Velvetleaf (velvetleaf) | Velvetleaf plant response rating (velvetleaf; [5]) | Plant response rating, Velvetleaf (velvetleaf; 13 to 15 days) | Velvetleaf plant response rating (velvetleaf; [6]) | further results
1 | Cc1cc(C(=O)NCC(F)(F)F)nn1Cc1ccnc(C(F)(F)F)c1 [Compound 74] | 80 | 5 | 5 | 50 | 100 | 98 | 100 | 100 | 100 | 80 | 100 | 100 | 100 | 10 | 25 | 98 | 100 | 45 | 65 | 100 | Crabgrass, Large plant response rating (crabgrass, large [1]; [4]): 100; Morningglory plant response rating (morningglory; [4]): 100; Barnyardgrass plant response rating (barnyardgrass; 1000 g ai/ha, visual rating after approx. 10 days, 0 to 100 scale (0 no effect, 100 complete control)): 90; Pigweed plant response rating (pigweed; Postemergence, 1000 g ai/ha, visual rating after approx. 10 days, 0 to 100 scale (0 no effect, 100 complete control)): 100; Crabgrass, Large plant response rating (crabgrass, large [3]; Postemergence, 31 g ai/ha): 10; Crabgrass, Large plant response rating (crabgrass, large [3]; postemergence, 62 g ai/ha): 20; Plant response rating, Crabgrass, Large (crabgrass, large [3]; [7]): 75; Plant response rating, Crabgrass, Large (crabgrass, large [3]; [8]): 30; Kochia plant response rating (kochia; Postemergence, 31 g ai/ha): 20; Kochia plant response rating (kochia; postemergence, 62 g ai/ha): 50; Plant response rating, Kochia (kochia; [7]): 90; Plant response rating, Kochia (kochia; [8]): 80; Chickweed plant response rating (chickweed; Postemergence, 31 g ai/ha): 20; Chickweed plant response rating (chickweed; postemergence, 62 g ai/ha): 45; Plant response rating, Chickweed (chickweed; [7]): 55; Plant response rating, Chickweed (chickweed; [8]): 45
2 | CCONC(=O)c1cc(CC)n(Cc2cccc(OC(F)(F)F)c2)n1 [Compound 72] | 95 | 40 | 85 | 85 | 98 | 55 | 95 | 98 | 100 | 65 | 80 | 85 | 75 | 40 | 55 | 65 | 100 | 20 | 100 | 100 | Crabgrass, Large plant response rating (crabgrass, large [1]; [9]): 100; Crabgrass, Large plant response rating (crabgrass, large [1]; [10]): 90; Morningglory plant response rating (morningglory; [9]): 90; Morningglory plant response rating (morningglory; [10]): 60; Barnyardgrass plant response rating (barnyardgrass; [11]): 90; Barnyardgrass plant response rating (barnyardgrass; [12]): 90; Pigweed plant response rating (pigweed; [13]): 100; Pigweed plant response rating (pigweed; [14]): 90; Crabgrass, Large plant response rating (crabgrass, large [3]; Postemergence, 31 g ai/ha): 5; Crabgrass, Large plant response rating (crabgrass, large [3]; postemergence, 62 g ai/ha): 5; Plant response rating, Crabgrass, Large (crabgrass, large [3]; [7]): 25; Plant response rating, Crabgrass, Large (crabgrass, large [3]; [8]): 5; Kochia plant response rating (kochia; Postemergence, 31 g ai/ha): 10; Kochia plant response rating (kochia; postemergence, 62 g ai/ha): 25; Plant response rating, Kochia (kochia; [7]): 55; Plant response rating, Kochia (kochia; [8]): 40; Chickweed plant response rating (chickweed; Postemergence, 31 g ai/ha): 40; Chickweed plant response rating (chickweed; postemergence, 62 g ai/ha): 40; Plant response rating, Chickweed (chickweed; [7]): 80; Plant response rating, Chickweed (chickweed; [8]): 50
3 | CCc1cc(C(=O)NOC(C)C)nn1Cc1cccc(OC(F)(F)F)c1 [Compound 70] | 80 | 20 | 30 | 60 | 100 | 95 | 98 | 98 | 98 | 65 | 75 | 90 | 95 | 20 | 65 | 80 | 100 | 20 | 60 | 75 | Crabgrass, Large plant response rating (crabgrass, large [1]; [9]): 100; Crabgrass, Large plant response rating (crabgrass, large [1]; [10]): 100; Morningglory plant response rating (morningglory; [9]): 100; Morningglory plant response rating (morningglory; [10]): 80; Barnyardgrass plant response rating (barnyardgrass; [11]): 80; Barnyardgrass plant response rating (barnyardgrass; [12]): 90; Pigweed plant response rating (pigweed; [13]): 100; Pigweed plant response rating (pigweed; [14]): 90; Crabgrass, Large plant response rating (crabgrass, large [3]; Postemergence, 31 g ai/ha): 5; Plant response rating, Crabgrass, Large (crabgrass, large [3]; [7]): 45; Plant response rating, Crabgrass, Large (crabgrass, large [3]; [15]): 10; Plant response rating, Crabgrass, Large (crabgrass, large [3]; [8]): 40; Kochia plant response rating (kochia; Postemergence, 31 g ai/ha): 50; Plant response rating, Kochia (kochia; [7]): 70; Plant response rating, Kochia (kochia; [15]): 55; Plant response rating, Kochia (kochia; [8]): 55; Chickweed plant response rating (chickweed; Postemergence, 31 g ai/ha): 45; Plant response rating, Chickweed (chickweed; [7]): 65; Plant response rating, Chickweed (chickweed; [15]): 45; Plant response rating, Chickweed (chickweed; [8]): 50
